From article PMC8198043, “Tetracyclic Thioxanthene Derivatives: Studies on Fluorescence and Antitumor Activity” (Molecules, 2021)

How the values were obtained:
[1] = system: NCI-H460 (non-small cell lung cancer); assay: SRB cell growth inhibition assay, NCI-H460; format: cell-based, human; conditions: for GI50: Homo sapiens, NCI-H460, SRB assay, continuous exposure for 48 h, mean ± SD, at least three independent experiments, read-out: Antitumor Activity (GI50) NCI-H460; for Selectivity Index NCI-H460: ratio of GI50 in non-tumor HPAEpiC cells over GI50 in NCI-H460
Experimental: (§1) To evaluate the biological activity of compounds 11–14, three human tumor cell lines (European Collection of Cell Culture, Salisbury, Wiltshire, UK) were used: A375-C5 (melanoma), MCF-7 (breast adenocarcinoma) and NCI-H460 (non-small cell lung cancer). Cells were grown in RPMI-1640 culture medium (Biochrom, Berlin, Germany) supplemented with 5% heat-inactivated fetal bovine serum (FBS, Biochrom) and maintained in a humidified incubator at 37 °C with 5% CO2 (Hera Cell, Heraeus).
(§2) The antitumor activity of compounds was accessed through the determination of the GI50 by the sulforhodamine B assay (SRB, Sigma-Aldrich). Tumor cells were seeded in 96-well plates (0.05 × 10^6 cells/well) in complete culture medium and incubated at 37 °C for 24 h, allowing cell attachment. Cells were then incubated with two-fold serial dilutions of the test compounds, with concentrations ranging from 0 to 75 μM. Dimethyl sulfoxide-treated cells (DMSO), up to 0.25% concentration, were included as compounds solvent control. Forty-eight hours later, cells were fixed with 50% (m/v) trichloroacetic acid (Merck Millipore, Darmstadt, Germany), washed with distilled water and stained with SRB for 30 min at room temperature. The SRB-stained cells were washed 5 times with 1% (v/v) acetic acid (Merck Millipore) and afterwards dried at RT; SRB complexes were solubilized by adding 10 mM Tris-Base buffer (Sigma-Aldrich) for 30 min. Absorbance was measured at 515 nm in a microplate reader (BioTek Synergy 2, BioTek Instruments Inc., Winooski, VT, USA).The concentration that caused cell growth inhibition of 50% (GI50) was determined based on a dose–response curve obtained for each cell line with each test compound.

[2] = system: A375-C5, MCF-7 and NCI-H460; assay: SRB cell growth inhibition, span over the three tumor cell lines; format: cell-based; conditions: Homo sapiens; A375-C5, MCF-7 and NCI-H460 taken together; read-out: GI50, range over the tested cell lines
Experimental: as §1
The antitumor activity of compounds was accessed through the determination of the GI50 by the sulforhodamine B assay (SRB, Sigma-Aldrich). Tumor cells were seeded in 96-well plates (0.05 × 10^6 cells/well) in complete culture medium and incubated at 37 °C for 24 h, allowing cell attachment. Cells were then incubated with two-fold serial dilutions of the test compounds, with concentrations ranging from 0 to 75 μM. Dimethyl sulfoxide-treated cells (DMSO), up to 0.25% concentration, were included as compounds solvent control. Forty-eight hours later, cells were fixed with 50% (m/v) trichloroacetic acid (Merck Millipore, Darmstadt, Germany), washed with distilled water and stained with SRB for 30 min at room temperature. […]

[3] = system: A375-C5 (melanoma); assay: SRB cell growth inhibition assay, A375-C5; format: cell-based, human; conditions: for GI50: Homo sapiens, A375-C5, SRB assay, continuous exposure for 48 h, mean ± SD, at least three independent experiments, read-out: Antitumor Activity (GI50) A375-C5; for Selectivity Index A375-C5: ratio of GI50 in non-tumor HPAEpiC cells over GI50 in A375-C5
Experimental: as §1, §2

[4] = system: MCF-7 (breast adenocarcinoma); assay: SRB cell growth inhibition assay, MCF-7; format: cell-based, human; conditions: for GI50: Homo sapiens, MCF7, SRB assay, continuous exposure for 48 h, mean ± SD, at least three independent experiments, read-out: Antitumor Activity (GI50) MCF-7; for Selectivity Index MCF-7: ratio of GI50 in non-tumor HPAEpiC cells over GI50 in MCF-7
Experimental: as §1, §2

[5] = Photophysical studies (absorption and emission in DMSO); format: physicochemical; conditions: for λmax: absorption; for λem: emission; for ΦF: fluorescence quantum yield, by comparison with fluorescein (φf = 90%); for log ε: molar absorption coefficient
Experimental: The absorption spectra in dimethyl sulfoxide solutions were obtained on a Shimadzu UV-2501 PC spectrophotometer (1 cm path length quartz cell) and the emission spectra were recorded on a JASCO spectrofluorometer. Molar absorption coefficients were determined using 4 measurements in the concentration range 10^−3–10^−6 mol.L^−1. Fluorescence quantum yields were determined by comparison with fluorescein in 0.1 M NaOH water solution as a fluorescence standard (φf = 90%).

[6] = system: Human Pulmonary Alveolar Epithelial Cells (HPAEpiC); assay: Cell toxicity in non-tumor cells (GI50); format: cell-based; conditions: mean ± SD of three independent experiments
Experimental: as §2
The non-tumor Human Pulmonary Alveolar Epithelial Cells (HPAEpiC) were used to assess the degree of selectivity of the compounds, as the ratio of GI50 in non-tumor cells over GI50 in cancer cells. A selectivity index value less than 2.0 indicates the general toxicity of the compound [32].

[7] = system: myeloid leukemia K562 cell line (doxorubicin-sensitive); parameters: method as in PMID 26771595; conditions: previous results by the group; cited from earlier work
[8] = system: myeloid leukemia K562 cell line (doxorubicin-resistant); parameters: method as in PMID 26771595; conditions: previous results by the group; cited from earlier work

Row | Structure (SMILES) | GI50 [1] [µM] | Selectivity Index NCI-H460 [1] | GI50 [2] [µM] | GI50 [3] [µM] | Selectivity Index A375-C5 [3] | GI50 [4] [µM] | Selectivity Index MCF-7 [4] | Stokes’ Shift [5] [nm] | λmax [5] [nm] | λem [5] [nm] | ΦF [5] [%] | log ε [5] | GI50 [6] [µM] | GI50 [7] [µM] | GI50 [8] [µM]
1 | CCCOc1ccc2nc(N)nc3c2c1Sc1ccccc1-3 [Compound 11, 6-Propoxythiochromeno[4,3,2-de]quinazolin-2-amine] | 5.66 ± 0.89 | 4.73 | 5 to 7 | 6.48 ± 0.88 | 4.13 | 6.39 ± 0.49 | 4.19 | 92 | 456 | 548 | 29.0 | 3.67 | 26.8 ± 1.2 |  | 
2 | CCCOc1ccc(NCCN(CC)CC)c2c(=O)c3ccccc3sc12 [Compound 4] |  |  |  |  |  |  |  |  |  |  |  |  |  | 1.9 | 1.9
3 | CCCOc1ccc2nc(NCc3ccccc3Cl)nc3c2c1Sc1ccccc1-3 [Compound 13, N-(2-Chlorobenzyl)-6-propoxythiochromeno[4,3,2-de]quinazolin-2-amine] | 17 ± 3.12 | 7.54 |  | 22.9 ± 3.75 | 5.59 | 18.9 ± 1.42 | 6.79 | 91 | 457 | 548 | 31.3 | 3.72 | 128 ± 1.56 |  | 
4 | CCCOc1ccc2ncnc3c2c1Sc1ccccc1-3 [Compound 12, 6-Propoxythiochromeno[4,3,2-de]quinazoline] | 31.2 ± 1.53 | 1.26 |  | 38.8 ± 5.93 | 1.01 | 33.8 ± 1.61 | 1.16 | 89 | 394 | 483 | 50.7 | 3.72 | 39.28 ± 0.25 |  | 
5 | CCCOc1ccc2c3c(n/c(=N/c4ccccc4C)n2-c2ccccc2C)-c2ccccc2Sc13 [Compound 14, (E)-6-Propoxy-N,3-di-o-tolylthiochromeno[4,3,2-de]quinazolin-2(3H)-imine] | 10.6 ± 0.31 |  | 8 to 11 | 8.02 ± 3.59 |  | 9.04 ± 0.89 |  | 80 | 480 | 560 | <0.1 | 4.00 | > 150 |  | 
6 | COc1cccc2c1C(=O)c1c(O)c3c(c(O)c1C2=O)C[C@@](O)(C(=O)CO)C[C@@H]3O[C@H]1C[C@H](N)[C@H](O)[C@H](C)O1 [Doxorubicin, reference compound] | 0.024 ± 0.006 | 2.25 |  | 0.016 ± 0.005 | 3.38 | 0.018 ± 0.003 | 3.00 |  |  |  |  |  | 0.054 ± 0.005 |  | 
